Results taken from PMC11410943 (Nature Communications, 2024).
In brackets after ≈: the same amount, converted by molar mass. Where two headings read alike, the source gives them in different places.

Tests used:
Escherichia coli = experiment: MIC
Pseudomonas aeruginosa = experiment: MIC
Klebsiella pneumoniae = experiment: MIC
Acinetobacter baumannii = experiment: MIC; details: IHMA/CARB-X MDR clinical isolates 2019, N=298
Enterobacter cloacae = experiment: MIC; details: IHMA/CARB-X MDR clinical isolates 2019, N=152
Citrobacter spp. = experiment: MIC
Proteus spp. = experiment: MIC
Serratia marcescens = experiment: MIC; details: IHMA/CARB-X MDR clinical isolates 2019, N=45
Morganella morganii = experiment: MIC; details: IHMA/CARB-X MDR clinical isolates 2019, N=42
[1] = system: Stenotrophomonas maltophilia; experiment: MIC; details: IHMA/CARB-X MDR clinical isolates 2019, N=150
hERG K+ channel = hERG K+ channel (Homo sapiens, UniProt Q12809); experiment: hERG automated patch-clamp; assay type: cell-based
Sequence of hERG K+ channel (Q12809 whole entry): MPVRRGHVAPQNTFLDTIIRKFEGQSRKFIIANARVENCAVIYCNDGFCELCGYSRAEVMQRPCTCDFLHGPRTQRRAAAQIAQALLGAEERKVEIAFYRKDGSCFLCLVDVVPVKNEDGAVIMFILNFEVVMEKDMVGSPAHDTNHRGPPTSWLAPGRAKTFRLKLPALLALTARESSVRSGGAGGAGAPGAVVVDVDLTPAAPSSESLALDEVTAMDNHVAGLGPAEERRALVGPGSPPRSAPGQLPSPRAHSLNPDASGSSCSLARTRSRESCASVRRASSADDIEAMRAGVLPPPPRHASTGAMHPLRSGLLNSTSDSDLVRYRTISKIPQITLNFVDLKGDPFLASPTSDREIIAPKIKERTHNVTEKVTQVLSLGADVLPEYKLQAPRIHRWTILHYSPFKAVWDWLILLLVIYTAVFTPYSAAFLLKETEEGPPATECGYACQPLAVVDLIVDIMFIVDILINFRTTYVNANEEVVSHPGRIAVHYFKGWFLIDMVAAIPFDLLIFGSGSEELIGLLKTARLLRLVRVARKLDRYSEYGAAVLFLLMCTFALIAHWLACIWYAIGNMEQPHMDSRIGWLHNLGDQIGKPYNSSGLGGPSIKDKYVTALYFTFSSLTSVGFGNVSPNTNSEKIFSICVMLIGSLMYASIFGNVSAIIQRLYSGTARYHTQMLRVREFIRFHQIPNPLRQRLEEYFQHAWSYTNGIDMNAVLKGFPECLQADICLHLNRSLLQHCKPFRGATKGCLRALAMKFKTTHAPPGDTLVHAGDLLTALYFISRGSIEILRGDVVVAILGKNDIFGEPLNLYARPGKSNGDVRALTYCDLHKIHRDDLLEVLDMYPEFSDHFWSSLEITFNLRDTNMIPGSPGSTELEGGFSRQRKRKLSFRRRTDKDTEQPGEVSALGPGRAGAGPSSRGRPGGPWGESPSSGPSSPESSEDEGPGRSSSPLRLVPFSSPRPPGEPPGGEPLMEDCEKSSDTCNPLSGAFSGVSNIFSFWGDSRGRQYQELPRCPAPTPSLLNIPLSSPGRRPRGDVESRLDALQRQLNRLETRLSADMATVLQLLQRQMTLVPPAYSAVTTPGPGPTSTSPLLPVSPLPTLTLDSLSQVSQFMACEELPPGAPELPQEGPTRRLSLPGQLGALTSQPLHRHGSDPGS

E. coli gyrase = E. coli gyrase (Escherichia coli, UniProt P0AES4); experiment: E. coli gyrase supercoiling inhibition; assay type: biochemical
Sequence of E. coli gyrase (P0AES4 whole entry): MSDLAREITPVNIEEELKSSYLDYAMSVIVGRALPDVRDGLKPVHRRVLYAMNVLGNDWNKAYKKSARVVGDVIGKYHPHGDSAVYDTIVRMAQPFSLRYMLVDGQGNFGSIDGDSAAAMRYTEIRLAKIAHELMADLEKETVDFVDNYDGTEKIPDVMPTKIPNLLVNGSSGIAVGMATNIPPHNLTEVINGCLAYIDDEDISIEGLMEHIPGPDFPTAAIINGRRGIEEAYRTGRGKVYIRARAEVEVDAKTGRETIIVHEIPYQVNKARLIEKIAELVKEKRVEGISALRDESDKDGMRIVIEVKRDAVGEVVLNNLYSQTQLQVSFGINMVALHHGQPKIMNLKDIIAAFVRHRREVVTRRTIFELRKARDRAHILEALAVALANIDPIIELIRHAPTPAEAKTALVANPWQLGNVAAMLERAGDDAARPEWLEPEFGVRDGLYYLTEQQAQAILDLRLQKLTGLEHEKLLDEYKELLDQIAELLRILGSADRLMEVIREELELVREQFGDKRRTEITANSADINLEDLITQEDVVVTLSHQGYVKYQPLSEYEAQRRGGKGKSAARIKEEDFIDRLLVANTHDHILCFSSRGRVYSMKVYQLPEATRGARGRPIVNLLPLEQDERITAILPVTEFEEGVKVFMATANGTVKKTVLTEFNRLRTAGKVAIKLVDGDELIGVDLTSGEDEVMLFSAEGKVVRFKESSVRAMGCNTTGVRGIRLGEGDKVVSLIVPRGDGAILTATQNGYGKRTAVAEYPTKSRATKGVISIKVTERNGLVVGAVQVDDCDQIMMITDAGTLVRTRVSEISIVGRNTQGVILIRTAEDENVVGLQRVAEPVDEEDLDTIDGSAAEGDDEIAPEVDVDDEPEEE

[2] = IHMA/CARB-X MDR clinical isolates 2019, N=300
[3] = IHMA/CARB-X MDR clinical isolates 2019, N=151
[4] = IHMA/CARB-X MDR clinical isolates 2019, N=152

Compound	MIC90 (Escherichia coli; Escherichia coli)	MIC90 (Klebsiella pneumoniae; Klebsiella pneumoniae)	MIC90 (Enterobacter cloacae; Enterobacter cloacae)	MIC90 (Citrobacter spp.; Citrobacter)	MIC90 (Proteus spp.)	MIC90 (Morganella morganii; Morganella morganii)	MIC90 (Pseudomonas aeruginosa; Pseudomonas aeruginosa)	MIC90 (Acinetobacter baumannii; Acinetobacter baumannii)	also measured
Meropenem-vaborbactam	–	–	–	–	–	–	–	–	MIC90 (Escherichia coli; [2]): ≤ 0.03 µg/mL; MIC90 (Pseudomonas aeruginosa; [2]): 32 µg/mL; MIC90 (Klebsiella pneumoniae; [2]): 16 µg/mL; MIC90 (Acinetobacter baumannii): > 32 µg/mL; MIC90 (Enterobacter cloacae): 0.25 µg/mL; MIC90 (Citrobacter spp.; [3]): ≤ 0.03 µg/mL; MIC90 (Proteus spp.; [4]): 0.125 µg/mL; MIC90 (Serratia marcescens): 0.125 µg/mL; MIC90 (Morganella morganii): 0.06 µg/mL; MIC90 [1]: > 32 µg/mL
CN[C@@H]1[C@@H](O)[C@@H](O[C@@H]2[C@@H](O)[C@H](O[C@H]3OC(CNCCO)=CC[C@H]3N)[C@@H](N)C[C@H]2NC(=O)[C@@H](O)CCN)OC[C@]1(C)O [Plazomicin]	1 µg/mL (≈ 1.69 µM)	0.5 µg/mL (≈ 0.844 µM)	0.5 µg/mL (≈ 0.844 µM)	0.5 µg/mL (≈ 0.844 µM)	4 µg/mL (≈ 6.75 µM)	8 µg/mL (≈ 13.5 µM)	–	–	–
COCC1=C(C(=O)O)N2C(=O)[C@@H](NC(=O)/C(=N\OC)c3csc(N)n3)[C@H]2SC1 [Cefpodoxime]	> 32 µg/mL	> 32 µg/mL	64 µg/mL (≈ 150 µM)	> 32 µg/mL	> 32 µg/mL	> 32 µg/mL	–	–	–
Piperacillin/Tazobactam	–	–	–	–	–	–	–	–	MIC90 (Pseudomonas aeruginosa; [2]): 128 µg/mL; MIC90 (Acinetobacter baumannii): > 128 µg/mL; MIC90 (Enterobacter cloacae): 0.06 µg/mL; MIC90 [1]: > 128 µg/mL
CC(C)(O/N=C(\C(=O)N[C@@H]1C(=O)N2C(C(=O)[O-])=C(C[n+]3ccccc3)CS[C@H]12)c1csc(N)n1)C(=O)O [Ceftazidime]	64 µg/mL (≈ 117 µM)	> 64 µg/mL	128 µg/mL (≈ 234 µM)	> 64 µg/mL	2 µg/mL (≈ 3.66 µM)	16 µg/mL (≈ 29.3 µM)	> 32 µg/mL	> 32 µg/mL	–
CC(C)(O/N=C(\C(=O)N[C@@H]1C(=O)N2C(C(=O)[O-])=C(C[N+]3(CCNC(=O)c4ccc(O)c(O)c4Cl)CCCC3)CS[C@H]12)c1csc(N)n1)C(=O)O [Cefiderocol]	2 µg/mL (≈ 2.66 µM)	2 µg/mL (≈ 2.66 µM)	4 µg/mL (≈ 5.32 µM)	2 µg/mL (≈ 2.66 µM)	0.5 µg/mL (≈ 0.665 µM)	1 µg/mL (≈ 1.33 µM)	2 µg/mL (≈ 2.66 µM)	4 µg/mL (≈ 5.32 µM)	–
C[C@@H](O)[C@H]1C(=O)N2C(C(=O)O)=C(S[C@@H]3CN[C@H](C(=O)N(C)C)C3)[C@H](C)[C@H]12 [Meropenem]	≤ 0.06 µg/mL	32 µg/mL (≈ 83.4 µM)	8 µg/mL (≈ 20.9 µM)	≤ 0.06 µg/mL	0.125 µg/mL (≈ 0.326 µM)	0.125 µg/mL (≈ 0.326 µM)	32 µg/mL (≈ 83.4 µM)	> 64 µg/mL	–
Aztreonam/Avibactam	–	–	–	–	–	–	–	–	MIC90 (Escherichia coli; [2]): 0.125 µg/mL; MIC90 (Pseudomonas aeruginosa; [2]): > 16 µg/mL; MIC90 (Klebsiella pneumoniae; [2]): 0.25 µg/mL; MIC90 (Enterobacter cloacae): 0.5 µg/mL; MIC90 (Citrobacter spp.; [3]): 0.25 µg/mL; MIC90 (Proteus spp.; [4]): ≤ 0.016 µg/mL; MIC90 (Serratia marcescens): 0.25 µg/mL; MIC90 (Morganella morganii): 0.06 µg/mL
Cn1c(=O)ccc2ccc(F)c(CCNC[C@@H]3CN(c4cnc5c(n4)NC(=O)CO5)C(=O)O3)c21 [Compound 8, 6-[(5 R)−5-[[[2-(7-Fluoro-1,2-dihydro-1-methyl-2-oxo-8-quinolinyl)ethyl]amino]methyl]−2-oxo-3-oxazolidinyl]−2H-pyrazino[2,3-b]−1,4-oxazin-3(4H)-one]	–	–	–	–	–	–	–	–	IC50 (hERG K+ channel): 60 µM
CN1C(=O)Cc2ccc(F)c(CNCCCC3CN(c4ccc5c(n4)NC(=O)CO5)C(=O)O3)c21 (centres unmarked) [Compound 2, 6-[5-[3-[[(6-Fluoro-2,3-dihydro-1-methyl-2-oxo-1H-indol-7-yl)methyl]amino]propyl]−2-oxo-3-oxazolidinyl]−2H-pyrido[3,2-b]−1,4-oxazin-3(4H)-one]	–	–	–	–	–	–	–	–	improvement in gyrase supercoiling and topoIV decatenation IC50 over compound 1 (E. coli gyrase): > 100 fold
Ceftazidime-Avibactam	–	–	–	–	–	–	–	–	MIC90 (Escherichia coli; [2]): 0.25 µg/mL; MIC90 (Pseudomonas aeruginosa; [2]): > 16 µg/mL; MIC90 (Klebsiella pneumoniae; [2]): 1 µg/mL; MIC90 (Enterobacter cloacae): 2 µg/mL; MIC90 (Citrobacter spp.; [3]): 0.5 µg/mL; MIC90 (Proteus spp.; [4]): 0.06 µg/mL; MIC90 (Serratia marcescens): 1 µg/mL; MIC90 (Morganella morganii): 0.125 µg/mL
C[C@H]1c2cccc(O)c2C(=O)C2=C(O)[C@]3(O)C(=O)C(C(N)=O)=C(O)[C@@H](N(C)C)[C@@H]3[C@@H](O)[C@@H]21 [Doxycycline]	32 µg/mL (≈ 72 µM)	32 µg/mL (≈ 72 µM)	16 µg/mL (≈ 36 µM)	16 µg/mL (≈ 36 µM)	> 32 µg/mL	64 µg/mL (≈ 144 µM)	32 µg/mL (≈ 72 µM)	64 µg/mL (≈ 144 µM)	–
C[C@H]1COc2c(N3CCN(C)CC3)c(F)cc3c(=O)c(C(=O)O)cn1c23 [Levofloxacin]	16 µg/mL (≈ 44.3 µM)	> 32 µg/mL	64 µg/mL (≈ 177 µM)	2 µg/mL (≈ 5.53 µM)	8 µg/mL (≈ 22.1 µM)	16 µg/mL (≈ 44.3 µM)	32 µg/mL (≈ 88.6 µM)	> 32 µg/mL	–
Cn1c(=O)ccc2ccc(F)c(CCNC[C@H]3CN(c4ncc5c(n4)NC(=O)CO5)C(=O)O3)c21 [Compound 6, 2-[(5S)−5-[[[2-(7-Fluoro-1,2-dihydro-1-methyl-2-oxo-8-quinolinyl)ethyl]amino]methyl]−2-oxo-3-oxazolidinyl]−6H-pyrimido[5,4-b][1,4]oxazin-7(8H)-one]	–	–	–	–	–	–	–	–	increase in hERG IC50 vs compound 5 (hERG K+ channel): > 10 fold
Colistin	–	–	–	–	–	–	–	–	MIC90 (Escherichia coli; [2]): 0.25 µg/mL; MIC90 (Pseudomonas aeruginosa; [2]): 1 µg/mL; MIC90 (Klebsiella pneumoniae; [2]): 0.5 µg/mL; MIC90 (Acinetobacter baumannii): 0.5 µg/mL; MIC90 (Enterobacter cloacae): 2 µg/mL; MIC90 (Citrobacter spp.; [3]): 0.5 µg/mL; MIC90 (Proteus spp.; [4]): > 32 µg/mL; MIC90 (Serratia marcescens): > 32 µg/mL; MIC90 (Morganella morganii): 64 µg/mL; MIC90 [1]: > 32 µg/mL
C[C@H]1[C@H](NC(=O)/C(=N\OC(C)(C)C(=O)O)c2csc(N)n2)C(=O)N1S(=O)(=O)O [Aztreonam]	> 64 µg/mL	> 64 µg/mL	–	64 µg/mL (≈ 147 µM)	0.5 µg/mL (≈ 1.15 µM)	16 µg/mL (≈ 36.7 µM)	> 16 µg/mL	–	–
NCC[C@H](O)C(=O)N[C@@H]1C[C@H](N)[C@@H](O[C@H]2O[C@H](CN)[C@@H](O)[C@H](O)[C@H]2O)[C@H](O)[C@H]1O[C@H]1O[C@H](CO)[C@@H](O)[C@H](N)[C@H]1O [Amikacin]	8 µg/mL (≈ 13.7 µM)	32 µg/mL (≈ 54.6 µM)	4 µg/mL (≈ 6.83 µM)	4 µg/mL (≈ 6.83 µM)	4 µg/mL (≈ 6.83 µM)	8 µg/mL (≈ 13.7 µM)	64 µg/mL (≈ 109 µM)	> 64 µg/mL	–
CNC(C)C1CCC(N)C(OC2C(N)CC(N)C(OC3OCC(C)(O)C(NC)C3O)C2O)O1 (centres unmarked) [Gentamicin]	> 32 µg/mL	> 32 µg/mL	1 µg/mL (≈ 2.09 µM)	8 µg/mL (≈ 16.8 µM)	16 µg/mL (≈ 33.5 µM)	64 µg/mL (≈ 134 µM)	> 32 µg/mL	> 32 µg/mL	–
CO/N=C(\C(=O)N[C@@H]1C(=O)N2C(C(=O)[O-])=C(C[N+]3(C)CCCC3)CS[C@H]12)c1csc(N)n1 [Cefepime]	> 32 µg/mL	> 32 µg/mL	–	> 32 µg/mL	16 µg/mL (≈ 33.3 µM)	> 32 µg/mL	> 32 µg/mL	> 32 µg/mL	–
NC[C@H]1O[C@H](O[C@H]2[C@H](O)[C@@H](O[C@H]3O[C@H](CO)[C@@H](O)[C@H](N)[C@H]3O)[C@H](N)C[C@@H]2N)[C@H](N)C[C@@H]1O [Tobramycin]	16 µg/mL (≈ 34.2 µM)	> 32 µg/mL	32 µg/mL (≈ 68.4 µM)	8 µg/mL (≈ 17.1 µM)	8 µg/mL (≈ 17.1 µM)	16 µg/mL (≈ 34.2 µM)	> 32 µg/mL	> 32 µg/mL	–
CN(C)[C@@H]1C(O)=C(C(N)=O)C(=O)[C@@]2(O)C(O)=C3C(=O)c4c(O)c(NC(=O)CN5CCCC5)cc(F)c4C[C@H]3C[C@@H]12 [Eravacycline]	0.25 µg/mL (≈ 0.448 µM)	1 µg/mL (≈ 1.79 µM)	–	0.5 µg/mL (≈ 0.895 µM)	2 µg/mL (≈ 3.58 µM)	1 µg/mL (≈ 1.79 µM)	–	–	–
